Measurements: US4784845A, “Emulsion compostions for the parenteral administration of sparingly water soluble ionizable hydrophobic drugs” (American Cyanamid Company, priority 1985, dated 1988)
Converted amounts (≈) assume the structure as drawn. Where a name gives a salt, the structure may show the parent alone.

Assays:
soft tissues = details: extravasation about the site of attempted intravenous administration; cited from earlier work
[1] = cited from earlier work; for Ambient Solution pH: commercial drug solution; for pH beyond which significant precipitation occurs: intravenous infusion, commercial drugs
[2] = test system: Marginal Ear Vein of Rabbits; assay: Peripheral vein irritation on intravenous infusion, rabbits (Table IV); format: in vivo, rabbit; set-up: key: +: Positive or present; -: Negative or absent; details: 2 hour i.v. infusion, gross postmortem one day after
Experimental: The emulsion drug delivery system formulation of Emulsions 3 and 4 in Table III was tested in two species of animals, for peripheral vein irritation in order to determine the occurrence of local injection site adverse reactions. […] The two species of animals used were rabbits and dogs. The formulations were given intravenously in a peripheral vein using a Butterfly infusion set (Becton, Dickenson Co., Inc., Rutherford, N.J.). The marginal ear vein was used in the rabbit and the saphenous or the cephalic vein of the leg was used in the dog.
The formulations were given by slow intravenous infusion using a Sage syringe pump (Sage Instruments, Orion Research Inc., Cambridge, MA) over a 2 hour period. The animals were restrained but unanesthetized during the infusion. After the infusion, the animals were returned to their cages and offered food. The animals were sacrificed one day after the infusion.
At sacrifice, the infused vein was opened from the point of infusion and cardiad for several centimeters. The condition of the vein, its intima and the surrounding parenchyma, as well as the presence or absence of orange-yellow material and/or clots in the vein, were recorded in Tables IV and V.

[3] = dissolved in oil phase of soybean oil emulsion, parenteral; cited from earlier work
[4] = challenge tests, benzyl alcohol vs parabens as preservative; cited from earlier work
[5] = cited from earlier work
[6] = propylene glycol, benzyl alcohol and ethyl alcohol as solvents; cited from earlier work
[7] = Partitioning of bisantrene in blood; format: in vitro ADME; details: inferred from solubility characteristics and other information
Excerpt: In serum and plasma, however, due to increase in the pH, the solubility drops considerably and this may be the reason that the drug precipitates at the point of infusion. […] Thus, if the drug can be kept in solution long enough to allow complete dilution in the entire blood volume, then the partitioning should take place without the intermediate precipitation.

[8] = Solubility of bisantrene in selected media and biological fluids (Table IB); format: physicochemical
[9] = Absorption and excretion of antiarthritic triazine candidate dosage forms; details: in vivo
Experimental: (§1) Because the antiarthritic triazine compound is a base, organic acids as counter-ions were studied to improve drug solubility. […] Additional drug complexes were prepared with various organic and inorganic acids. […] The inherent insolubility of the drug appears to be responsible, to some extent, for the preceding results. In order to overcome the drug insolubility problem one of the objectives considered was to design a dosage form which would improve drug absorption when given by intravenous, intramuscular or intra-articular injection.

physchem = format: physicochemical
Experimental: as §1

normal human subjects = details: single doses of 2.0 g, 24 subjects, cited from earlier work
mammals = details: aqueous solution, intravenous; cited from earlier work

COc1cccc2c1C(=O)c1c(O)c3c(c(O)c1C2=O)C[C@@](O)(C(=O)CO)C[C@@H]3O[C@H]1C[C@H](N)[C@H](O)[C@H](C)O1 [Adriamycin]
tissue damage on extravasation (soft tissues): massive tissue necrosis

CC(CN1c2ccccc2Sc2ccccc21)N(C)C (stereo not drawn) [Phenergan, promethazine]
Ambient Solution pH [1]: 5.68
pH beyond which significant precipitation occurs [1]: 6.42

COc1ccc2c(c1)N(C[C@H](C)CN(C)C)c1ccccc1S2 [Nozinan, levomepromize]
Ambient Solution pH [1]: 4.38
pH beyond which significant precipitation occurs [1]: 6.50

C(=N\NC1=NCCN1)/c1c2ccccc2c(/C=N/NC2=NCCN2)c2ccccc12 [Bisantrene HCl]
External: Reddened ([2]; sex F): +
External: Yellow Deposit ([2]; sex F): +
Subcutaneous: Hemorrhage ([2]; sex F): -
Vascular Lumen: Yellow Deposit ([2]; sex F): +
External: Reddened ([2]; sex M): -
External: Swollen ([2]; sex M): -
External: Yellow Deposit ([2]; sex M): -
Subcutaneous: Edema ([2]; sex M): +
Subcutaneous: Hemorrhage ([2]; sex M): -
Subcutaneous: Yellow Deposit ([2]; sex M): -
Vascular Lumen: Blood Clot ([2]; sex M): -
Vascular Lumen: Yellow Deposit ([2]; sex M): +

O=[N+]([O-])OCC(CO[N+](=O)[O-])O[N+](=O)[O-] [nitroglycerin]
pharmacological effects compared with water solution of the sodium salts [3]: nearly equal

OCCOCCN1CCN(C(c2ccccc2)c2ccc(Cl)cc2)CC1 (stereo not drawn) [Atarax, hydroxyzine]
Ambient Solution pH [1]: 5.60
pH beyond which significant precipitation occurs [1]: 6.40

CC1CC(OC(=O)C(O)c2ccccc2)CC(C)(C)C1 (stereo not drawn) [cyclandelate]
pharmacological effects compared with water solution of the sodium salts [3]: nearly equal

C[C@H](N)[C@H](O)c1cccc(O)c1 [Aramine, metaraminol]
Ambient Solution pH [1]: 3.60
pH beyond which significant precipitation occurs [1]: 5.80

OCc1ccccc1 [benzyl alcohol]
antibacterial activity [4]: higher antibacterial activity
acute systemic toxicity ([5]; 0.9% (w/v), intravenous): absence of acute systemic toxicity
half-life ([5]; in vivo, iv): 1.5 h
volume of distribution ([5]; in vivo): widespread tissue dissemination

CN1C(=O)CN=C(c2ccccc2)c2cc(Cl)ccc21 [diazepam]
local reactions upon intravenous injection [6]: may not only cause pain upon intravenous injection, but also thrombophlebitis
pharmacological effects compared with water solution of the sodium salts [3]: nearly equal

C(=N\NC1=NCCN1)/c1c2ccccc2c(/C=N/NC2=NCCN2)c2ccccc12 [Bisantrene, bis(2-imidazolen-2-ylhydrazone)-9,10-anthracenedicarboxaldehyde]
partitioning into erythrocytes [7]: eventually partitions into the erythrocytes
solubility ([8]; 5% dextrose solution, pH 4.6): 10000 µg/mL (≈ 25100 µM)
solubility ([8]; Plasma, pH 7.7-8.2): 90 µg/mL (≈ 226 µM)
solubility ([8]; Whole Blood, pH 7.9): 400 µg/mL (≈ 1000 µM)
solubility ([8]; normal saline, pH 5.5): 2000 µg/mL (≈ 5020 µM)
solubility ([8]; serum, pH 7.8): 27 µg/mL (≈ 67.8 µM)

CC(C)(C)C(C)(C)Nc1nc(NC(C)(C)C(C)(C)C)nc(N2CC3CCC(CC3)C2)n1 [Antiarthritic Triazine Compound, 3-[4,6-bis[(1,1-2,2-tetramethylpropyl)amino]-s-triazin-2-yl]-3-azabicyclo[3.2.2]nonane]
parenteral absorption [9]: negligible
oral absorption ([9]; po): slightly better
dose excreted ([9]; oral, candidate dosage forms, preliminary, read-out: compound excreted in the feces): ~90%
increase of solubility (physchem): 500 to 1000 µg/mL
solubility (physchem): 300 µg/mL (≈ 697 µM)
solubility in water (physchem): insignificant solubility in water
solubility range (physchem): 500 to 1500 µg/mL
solubility (physchem; 1,3-butylene glycol, organic solvent or mixture): 300 µg/mL (≈ 697 µM)
solubility (physchem; benzyl alcohol, organic solvent or mixture): 800 µg/mL (≈ 1860 µM)
solubility (physchem; benzyl benzoate, organic solvent or mixture): 1300 µg/mL (≈ 3020 µM)
solubility (physchem; brij 35 2% solution): 50 µg/mL (≈ 116 µM)
solubility (physchem; cremophor el, organic solvent or mixture): 200 µg/mL (≈ 464 µM)
solubility (physchem; dimethyl acetamide, organic solvent or mixture): 700 µg/mL (≈ 1630 µM)
solubility (physchem; emulphor el-620p, organic solvent or mixture): < 100 µg/mL
solubility (physchem; ethanol usp, organic solvent or mixture): < 100 µg/mL
solubility (physchem; propylene glycol isostearate, organic solvent or mixture): 1500 µg/mL (≈ 3480 µM)
solubility (physchem; propylene glycol, organic solvent or mixture): < 100 µg/mL
solubility (physchem; triacetin, organic solvent or mixture): 100 µg/mL (≈ 232 µM)

N#CC(CCN1CCC(C(N)=O)(N2CCCCC2)CC1)(c1ccccc1)c1ccccc1 [Dipidolor, piritramide]
Ambient Solution pH [1]: 3.97
pH beyond which significant precipitation occurs [1]: 4.50

O=C(CCCN1CC=C(n2c(=O)[nH]c3ccccc32)CC1)c1ccc(F)cc1 [Droperidol]
Ambient Solution pH [1]: 3.24
pH beyond which significant precipitation occurs [1]: 5.83

CN(C)CCCN1c2ccccc2Sc2ccccc21 [Prazine, promazine]
Ambient Solution pH [1]: 4.85
pH beyond which significant precipitation occurs [1]: 7.10

CC(=O)Nc1ccc(OCC(O)CNC(C)C)cc1 (stereo not drawn) [Eraldin, practolol]
Ambient Solution pH [1]: 5.80
pH beyond which significant precipitation occurs [1]: 7.40

C[C@H]1C[C@@H]2[C@H]([C@@H](O)C[C@@]3(C)[C@H]2CC[C@]3(O)C(=O)COC(=O)CCC(=O)O)[C@@]2(C)C=CC(=O)C=C12 [methylprednisolone sodium succinate]
tolerability / side effects (normal human subjects; benzyl alcohol or paraben preservative): well tolerated and no important drug-related side effects were encountered
changes in vital signs, electrocardiograms, electroencephalograms, or laboratory parameters (normal human subjects): No clinically significant changes
expected corticosteroid induced changes (normal human subjects): reversible

C(=N\NC1=NCCN1)/c1c2ccccc2c(/C=N/NC2=NCCN2)c2ccccc12 [bisantrene dihydrochloride]
chemical phlebitis (mammals): chemical phlebitis

CC(C)NCC(O)COc1cccc2ccccc12 (racemic) [Inderal, propanolol]
Ambient Solution pH [1]: 3.50
pH beyond which significant precipitation occurs [1]: 6.00

OCCN(CCO)c1nc(N2CCCCC2)c2nc(N(CCO)CCO)nc(N3CCCCC3)c2n1 [Persantine, dipyridamole]
Ambient Solution pH [1]: 3.12
pH beyond which significant precipitation occurs [1]: 5.10
